From patent US20120270237A9, “METHODS FOR THE IDENTIFICATION OF KINASE INTERACTING MOLECULES AND FOR THE PURIFICATION OF KINASE PROTEINS” (Cellzone AG, priority 2009, published 2012)

Columns and labels:
Experiment in all cases: Kinobeads competition binding, L-363 cell lysate
Parameters in all cases: endogenous in cells
Conditions in all cases: 10 μM free compound, L-363 lysate
IRAK1 = IRAK1 (Homo sapiens, UniProt P51617)
Outline: (§1)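 Steps: MG132 20 μM, 3 h, on L-363 cells; harvest and lyse; add 10 μM free compound (or DMSO control); add affinity beads with immobilized compound; elute in SDS buffer, run gel, in-gel trypsin digest; iTRAQ label; nano-LC-MS/MS quantification.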

MST1 = target: T1, MST1 (Homo sapiens, UniProt Q13043)
T1 sequence (Q13043 1-487): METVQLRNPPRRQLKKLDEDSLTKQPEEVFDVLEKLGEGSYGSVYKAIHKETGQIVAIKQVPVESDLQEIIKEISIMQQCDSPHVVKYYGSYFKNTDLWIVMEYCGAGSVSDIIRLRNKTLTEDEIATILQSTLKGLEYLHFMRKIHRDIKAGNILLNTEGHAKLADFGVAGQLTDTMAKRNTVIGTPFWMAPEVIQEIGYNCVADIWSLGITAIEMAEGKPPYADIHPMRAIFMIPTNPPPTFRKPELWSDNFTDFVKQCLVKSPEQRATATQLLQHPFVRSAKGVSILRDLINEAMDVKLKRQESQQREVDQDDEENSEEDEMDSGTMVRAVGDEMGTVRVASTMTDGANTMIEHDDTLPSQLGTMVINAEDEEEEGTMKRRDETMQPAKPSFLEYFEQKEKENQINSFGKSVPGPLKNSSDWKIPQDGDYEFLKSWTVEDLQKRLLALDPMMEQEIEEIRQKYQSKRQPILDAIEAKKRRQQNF
Outline: as §1

BIKE = BIKE (Homo sapiens, UniProt Q9NSY1)
BIKE, sequence (Q9NSY1 whole entry): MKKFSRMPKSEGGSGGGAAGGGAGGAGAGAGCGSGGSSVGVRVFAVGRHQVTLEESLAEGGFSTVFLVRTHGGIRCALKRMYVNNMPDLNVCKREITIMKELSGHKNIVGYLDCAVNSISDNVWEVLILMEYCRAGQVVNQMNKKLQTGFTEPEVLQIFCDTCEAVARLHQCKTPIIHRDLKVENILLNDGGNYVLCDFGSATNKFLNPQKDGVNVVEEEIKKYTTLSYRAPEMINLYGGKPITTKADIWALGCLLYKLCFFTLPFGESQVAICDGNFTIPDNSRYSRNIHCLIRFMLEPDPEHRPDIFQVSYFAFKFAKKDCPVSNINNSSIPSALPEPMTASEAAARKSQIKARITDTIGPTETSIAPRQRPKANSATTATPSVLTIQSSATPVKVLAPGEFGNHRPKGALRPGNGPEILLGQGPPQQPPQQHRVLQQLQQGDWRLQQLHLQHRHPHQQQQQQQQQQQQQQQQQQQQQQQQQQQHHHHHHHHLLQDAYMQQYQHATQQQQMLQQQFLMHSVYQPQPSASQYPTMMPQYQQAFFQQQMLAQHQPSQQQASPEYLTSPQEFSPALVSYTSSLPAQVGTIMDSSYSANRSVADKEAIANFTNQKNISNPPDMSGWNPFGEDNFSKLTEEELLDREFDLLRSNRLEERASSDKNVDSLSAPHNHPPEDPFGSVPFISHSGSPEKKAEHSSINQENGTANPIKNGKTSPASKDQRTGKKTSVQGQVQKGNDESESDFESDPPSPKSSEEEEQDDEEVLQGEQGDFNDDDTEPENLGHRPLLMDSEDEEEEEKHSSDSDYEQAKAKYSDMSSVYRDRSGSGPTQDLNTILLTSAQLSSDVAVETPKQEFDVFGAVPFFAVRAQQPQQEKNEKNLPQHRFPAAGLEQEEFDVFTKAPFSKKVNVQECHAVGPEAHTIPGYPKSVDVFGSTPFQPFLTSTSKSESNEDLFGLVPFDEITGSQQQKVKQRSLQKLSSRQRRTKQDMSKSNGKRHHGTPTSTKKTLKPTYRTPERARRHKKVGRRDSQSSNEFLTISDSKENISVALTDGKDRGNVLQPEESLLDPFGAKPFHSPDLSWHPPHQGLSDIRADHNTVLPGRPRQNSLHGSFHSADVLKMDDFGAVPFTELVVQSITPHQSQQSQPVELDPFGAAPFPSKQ
Outline: as §1

MAP3K2 = target: T2, MAP3K2 (Homo sapiens, UniProt Q9Y2U5)
T2 sequence (Q9Y2U5 1-619): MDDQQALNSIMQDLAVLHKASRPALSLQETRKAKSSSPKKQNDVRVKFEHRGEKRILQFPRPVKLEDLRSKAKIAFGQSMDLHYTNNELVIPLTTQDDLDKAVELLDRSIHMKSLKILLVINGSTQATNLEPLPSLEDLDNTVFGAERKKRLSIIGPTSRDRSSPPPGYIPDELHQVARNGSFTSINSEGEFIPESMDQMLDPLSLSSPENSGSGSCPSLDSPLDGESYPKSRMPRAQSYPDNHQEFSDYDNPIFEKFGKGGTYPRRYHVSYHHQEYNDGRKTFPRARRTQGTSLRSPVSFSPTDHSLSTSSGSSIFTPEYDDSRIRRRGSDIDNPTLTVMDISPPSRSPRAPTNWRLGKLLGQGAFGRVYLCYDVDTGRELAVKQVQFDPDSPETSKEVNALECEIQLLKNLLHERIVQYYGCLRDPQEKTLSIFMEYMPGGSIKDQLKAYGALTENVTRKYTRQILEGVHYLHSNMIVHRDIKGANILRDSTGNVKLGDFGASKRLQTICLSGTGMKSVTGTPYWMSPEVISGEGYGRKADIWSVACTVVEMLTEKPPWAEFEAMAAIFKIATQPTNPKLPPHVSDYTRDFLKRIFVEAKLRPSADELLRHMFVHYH
Outline: as §1

Wee1 = Wee1 (Homo sapiens, UniProt P30291)
Wee1, sequence (P30291 whole entry): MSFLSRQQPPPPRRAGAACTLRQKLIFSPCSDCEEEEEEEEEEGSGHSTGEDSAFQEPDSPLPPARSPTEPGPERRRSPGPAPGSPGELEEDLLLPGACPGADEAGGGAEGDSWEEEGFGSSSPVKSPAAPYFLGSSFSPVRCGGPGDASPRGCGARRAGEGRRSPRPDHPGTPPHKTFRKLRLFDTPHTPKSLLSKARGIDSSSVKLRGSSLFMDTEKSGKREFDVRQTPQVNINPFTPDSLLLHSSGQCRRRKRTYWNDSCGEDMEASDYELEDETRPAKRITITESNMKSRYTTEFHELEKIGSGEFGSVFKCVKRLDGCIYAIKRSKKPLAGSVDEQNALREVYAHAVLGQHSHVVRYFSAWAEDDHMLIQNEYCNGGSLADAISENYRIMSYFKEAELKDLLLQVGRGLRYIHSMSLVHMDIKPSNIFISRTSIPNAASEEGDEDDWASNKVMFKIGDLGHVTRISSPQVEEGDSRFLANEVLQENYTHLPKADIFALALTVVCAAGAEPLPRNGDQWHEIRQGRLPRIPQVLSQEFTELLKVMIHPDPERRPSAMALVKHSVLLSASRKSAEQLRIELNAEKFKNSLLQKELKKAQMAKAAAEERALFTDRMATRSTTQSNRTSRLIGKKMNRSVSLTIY
Outline: as §1

PKN1 = PKN1 (Homo sapiens, UniProt Q16512)
PKN1, sequence (Q16512 whole entry): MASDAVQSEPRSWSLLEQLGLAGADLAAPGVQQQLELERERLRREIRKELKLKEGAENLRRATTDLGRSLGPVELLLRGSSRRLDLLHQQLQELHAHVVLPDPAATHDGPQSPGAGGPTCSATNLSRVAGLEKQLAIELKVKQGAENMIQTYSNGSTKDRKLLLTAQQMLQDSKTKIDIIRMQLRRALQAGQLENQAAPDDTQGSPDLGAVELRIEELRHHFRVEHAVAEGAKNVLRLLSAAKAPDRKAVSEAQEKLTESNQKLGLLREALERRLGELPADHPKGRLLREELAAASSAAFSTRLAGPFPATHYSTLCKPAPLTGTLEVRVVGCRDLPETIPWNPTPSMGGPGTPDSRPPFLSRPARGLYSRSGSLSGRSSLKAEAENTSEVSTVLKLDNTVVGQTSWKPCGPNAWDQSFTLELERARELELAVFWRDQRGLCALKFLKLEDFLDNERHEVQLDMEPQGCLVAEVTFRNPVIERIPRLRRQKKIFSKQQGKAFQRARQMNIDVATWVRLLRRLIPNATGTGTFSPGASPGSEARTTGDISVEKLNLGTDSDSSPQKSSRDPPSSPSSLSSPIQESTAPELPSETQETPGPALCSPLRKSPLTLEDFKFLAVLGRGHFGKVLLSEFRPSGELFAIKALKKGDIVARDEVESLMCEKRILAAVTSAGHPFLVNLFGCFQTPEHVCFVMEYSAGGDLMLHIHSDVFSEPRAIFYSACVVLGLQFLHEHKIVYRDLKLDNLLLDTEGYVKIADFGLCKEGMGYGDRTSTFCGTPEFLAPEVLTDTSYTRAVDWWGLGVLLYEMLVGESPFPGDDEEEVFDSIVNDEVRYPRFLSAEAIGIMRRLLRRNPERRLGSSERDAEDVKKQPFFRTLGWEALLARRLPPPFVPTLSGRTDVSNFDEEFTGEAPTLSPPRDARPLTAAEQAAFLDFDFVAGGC
Outline: as §1

PKD2 = target: T3, PKD2 (Homo sapiens, UniProt Q9BZL6)
T3 sequence (Q9BZL6 1-878): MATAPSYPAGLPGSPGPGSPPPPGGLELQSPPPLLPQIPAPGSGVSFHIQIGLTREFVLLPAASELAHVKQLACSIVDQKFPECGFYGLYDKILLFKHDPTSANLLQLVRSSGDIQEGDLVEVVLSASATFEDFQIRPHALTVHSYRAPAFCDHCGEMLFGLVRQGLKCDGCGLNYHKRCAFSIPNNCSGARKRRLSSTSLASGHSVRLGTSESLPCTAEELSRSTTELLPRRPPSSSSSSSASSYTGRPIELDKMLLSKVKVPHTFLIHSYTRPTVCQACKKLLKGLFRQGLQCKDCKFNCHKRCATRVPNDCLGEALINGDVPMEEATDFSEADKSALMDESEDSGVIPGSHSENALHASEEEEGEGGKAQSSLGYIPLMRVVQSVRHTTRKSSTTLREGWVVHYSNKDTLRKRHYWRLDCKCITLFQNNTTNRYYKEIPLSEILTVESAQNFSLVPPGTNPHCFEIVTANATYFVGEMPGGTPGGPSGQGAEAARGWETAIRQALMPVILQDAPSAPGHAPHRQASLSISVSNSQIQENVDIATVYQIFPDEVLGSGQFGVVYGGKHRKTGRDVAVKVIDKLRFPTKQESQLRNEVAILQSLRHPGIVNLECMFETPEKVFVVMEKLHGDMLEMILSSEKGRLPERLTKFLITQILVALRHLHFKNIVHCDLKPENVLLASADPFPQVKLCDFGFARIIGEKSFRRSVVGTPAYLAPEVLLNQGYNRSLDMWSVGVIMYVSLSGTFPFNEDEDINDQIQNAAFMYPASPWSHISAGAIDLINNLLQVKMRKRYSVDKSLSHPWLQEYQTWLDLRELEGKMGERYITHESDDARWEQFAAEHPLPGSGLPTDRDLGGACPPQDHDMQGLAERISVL
Outline: as §1

HIPK2 = HIPK2 (Homo sapiens, UniProt Q9H2X6)
HIPK2, sequence (Q9H2X6 whole entry): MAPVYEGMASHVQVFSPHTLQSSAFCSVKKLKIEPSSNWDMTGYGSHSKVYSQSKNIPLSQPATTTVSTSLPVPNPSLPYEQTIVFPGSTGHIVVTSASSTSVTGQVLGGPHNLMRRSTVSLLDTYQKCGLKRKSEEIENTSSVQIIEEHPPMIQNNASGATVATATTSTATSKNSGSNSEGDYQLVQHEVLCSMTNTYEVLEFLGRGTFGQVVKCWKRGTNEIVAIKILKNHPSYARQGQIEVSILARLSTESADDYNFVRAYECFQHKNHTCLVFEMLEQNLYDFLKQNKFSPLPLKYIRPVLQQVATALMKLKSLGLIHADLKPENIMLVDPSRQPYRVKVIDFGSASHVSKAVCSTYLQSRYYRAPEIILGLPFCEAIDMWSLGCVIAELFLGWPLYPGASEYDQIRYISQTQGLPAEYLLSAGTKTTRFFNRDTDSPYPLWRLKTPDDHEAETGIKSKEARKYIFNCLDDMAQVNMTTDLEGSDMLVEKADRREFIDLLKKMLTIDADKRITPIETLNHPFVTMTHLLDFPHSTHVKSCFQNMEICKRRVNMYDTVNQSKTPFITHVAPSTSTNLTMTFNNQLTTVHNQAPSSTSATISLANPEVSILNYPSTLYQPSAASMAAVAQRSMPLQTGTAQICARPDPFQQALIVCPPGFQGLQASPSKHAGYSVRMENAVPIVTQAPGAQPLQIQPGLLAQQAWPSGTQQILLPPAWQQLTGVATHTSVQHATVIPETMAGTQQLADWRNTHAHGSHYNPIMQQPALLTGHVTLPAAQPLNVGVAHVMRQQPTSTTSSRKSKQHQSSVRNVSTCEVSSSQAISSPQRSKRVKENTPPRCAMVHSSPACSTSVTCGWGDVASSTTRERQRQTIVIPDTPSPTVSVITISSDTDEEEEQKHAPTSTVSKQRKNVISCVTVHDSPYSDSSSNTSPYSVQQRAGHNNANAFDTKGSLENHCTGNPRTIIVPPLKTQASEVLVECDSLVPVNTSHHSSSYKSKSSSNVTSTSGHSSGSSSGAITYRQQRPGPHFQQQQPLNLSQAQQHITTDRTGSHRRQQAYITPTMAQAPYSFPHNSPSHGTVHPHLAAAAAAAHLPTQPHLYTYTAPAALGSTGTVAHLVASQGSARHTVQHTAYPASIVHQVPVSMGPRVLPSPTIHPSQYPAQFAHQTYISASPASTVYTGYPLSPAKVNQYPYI
Outline: as §1

IRAK1, sequence (P51617 whole entry): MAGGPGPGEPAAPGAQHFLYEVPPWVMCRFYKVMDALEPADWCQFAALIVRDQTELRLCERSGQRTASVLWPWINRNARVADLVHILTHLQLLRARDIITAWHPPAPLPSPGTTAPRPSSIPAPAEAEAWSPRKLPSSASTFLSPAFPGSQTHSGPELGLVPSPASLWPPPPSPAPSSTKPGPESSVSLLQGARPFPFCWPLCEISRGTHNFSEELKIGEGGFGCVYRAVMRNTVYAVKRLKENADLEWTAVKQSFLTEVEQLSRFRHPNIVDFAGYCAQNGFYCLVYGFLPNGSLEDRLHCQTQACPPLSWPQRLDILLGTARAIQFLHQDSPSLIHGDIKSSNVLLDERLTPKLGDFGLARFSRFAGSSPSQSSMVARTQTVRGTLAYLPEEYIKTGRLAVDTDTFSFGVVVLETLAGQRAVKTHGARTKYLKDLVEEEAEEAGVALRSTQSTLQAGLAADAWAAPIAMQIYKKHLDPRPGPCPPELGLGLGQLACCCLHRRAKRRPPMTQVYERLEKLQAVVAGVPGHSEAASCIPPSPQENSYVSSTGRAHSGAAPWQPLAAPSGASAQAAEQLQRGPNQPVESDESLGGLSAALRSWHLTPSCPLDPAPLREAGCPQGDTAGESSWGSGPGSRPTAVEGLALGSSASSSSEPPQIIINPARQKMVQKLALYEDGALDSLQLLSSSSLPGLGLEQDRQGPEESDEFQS

For `CS(=O)(=O)Nc1ccccc1Nc1nc(Nc2cccc(OCCN)c2)ncc1Cl` [CZC31326, N-(2-(2-(3-(2-aminoethoxy)phenylamino)-5-chloropyrimidin-4-ylamino)phenyl)methanesulfonamide], the inhibition at 10 µM (IRAK1) was 95.1%, the Competition % (MST1) was 98.3% and the inhibition at 10 µM (BIKE) was 97%. For the same molecule, the inhibition at 10 µM (MAP3K2) was 96%, the inhibition at 10 µM (Wee1) was 96.4% and the inhibition at 10 µM (PKN1) was 95.9%. For the same molecule, the inhibition at 10 µM (PKD2) was 98% and the inhibition at 10 µM (HIPK2) was 95.6%.
